Measurements reported in US20040005352A1, “Biologically functionalized porous microspheres” (priority 2002, published 2004).

Experiments:
Human DAT protein = Human DAT protein (Homo sapiens, UniProt Q01959); settings: anticipated; [3H]DA uptake, 3 min at 34° C.
[1] = tested on: lipid bilayer of membrane-enclosed microspheres; assay type: biochemical; settings: pH 7.4
bacteriorhodopsin (BR) = biological target: T1, bacteriorhodopsin (BR) (Halobacterium salinarum, UniProt P02945); test: FITC response to illumination of bacteriorhodopsin in the microsphere membrane (flow cytometry); settings: for Activity of BR within the microsphere (proton pumping): BR in lipid bilayer on mesoporous microspheres, illumination
T1 sequence (P02945 14-262): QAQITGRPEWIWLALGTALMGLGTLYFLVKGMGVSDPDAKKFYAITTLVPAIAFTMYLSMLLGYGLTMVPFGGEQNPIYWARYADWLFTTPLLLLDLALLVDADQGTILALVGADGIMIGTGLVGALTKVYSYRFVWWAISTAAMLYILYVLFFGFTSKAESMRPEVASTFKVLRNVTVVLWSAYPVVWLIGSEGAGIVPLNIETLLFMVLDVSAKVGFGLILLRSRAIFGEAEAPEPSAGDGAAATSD
Text: The next investigation was to determine whether a integral membrane protein, bacteriorhodopsin (BR) retained its activity and effect a change on the contents of the microporous microsphere. The natural activity of bacteriorhodpsin is to increase the proton concentration (i.e. pH) upon illumination with the appropriate wavelength of light (ca 510 nm).
The microspheres were then enveloped with liposomes containing 0.1-5% reconstituted bacteriorhodpsin-containing “purple membrane” from Halobacterium salinarum, in egg phosphatidyl choline.

Sequence of Human DAT protein (Q01959 whole entry): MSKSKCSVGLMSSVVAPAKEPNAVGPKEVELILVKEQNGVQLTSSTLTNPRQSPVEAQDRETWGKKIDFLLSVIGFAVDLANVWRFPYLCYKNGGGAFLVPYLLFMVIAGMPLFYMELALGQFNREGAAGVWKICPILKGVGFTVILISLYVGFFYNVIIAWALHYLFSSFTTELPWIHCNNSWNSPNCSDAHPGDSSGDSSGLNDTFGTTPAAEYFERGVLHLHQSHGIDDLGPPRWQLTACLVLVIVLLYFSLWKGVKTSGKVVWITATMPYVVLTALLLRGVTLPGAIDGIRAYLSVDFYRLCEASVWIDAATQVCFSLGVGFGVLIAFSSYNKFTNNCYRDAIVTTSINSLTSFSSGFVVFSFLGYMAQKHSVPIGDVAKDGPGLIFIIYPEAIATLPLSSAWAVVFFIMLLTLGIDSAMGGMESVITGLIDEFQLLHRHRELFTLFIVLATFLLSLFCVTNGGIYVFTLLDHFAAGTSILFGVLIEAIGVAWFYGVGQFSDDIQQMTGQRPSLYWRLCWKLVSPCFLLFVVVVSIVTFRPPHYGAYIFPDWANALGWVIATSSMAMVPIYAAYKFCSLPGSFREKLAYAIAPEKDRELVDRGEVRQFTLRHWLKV

NCCc1ccc(O)c(O)c1 [dopamine]
Vmax (Human DAT protein): 9.0 pmol/10^5 cells/min

α-hemolysin
Change in Mag-Fluo-4 fluorescence intensity (mean channel fluorescence) [1]: increase in fluorescence intensity

O=[N+]([O-])[O-].O=[N+]([O-])[O-].O=[N+]([O-])[O-].[Gd+3] [Gd(NO3)3, reference compound]
Effect on BR (bacteriorhodopsin (BR); 3 μM Gd(NO3)3): inhibitor of BR

B1: BR: integral membrane protein, light driven proton pump; purple membrane from Halobacterium salinarum (protein, UniProt P02945 14-262, looked up)
Bacteriorhodopsin: QAQITGRPEWIWLALGTALMGLGTLYFLVKGMGVSDPDAKKFYAITTLVPAIAFTMYLSMLLGYGLTMVPFGGEQNPIYWARYADWLFTTPLLLLDLALLVDADQGTILALVGADGIMIGTGLVGALTKVYSYRFVWWAISTAAMLYILYVLFFGFTSKAESMRPEVASTFKVLRNVTVVLWSAYPVVWLIGSEGAGIVPLNIETLLFMVLDVSAKVGFGLILLRSRAIFGEAEAPEPSAGDGAAATSD
FITC intensity after several minutes of illumination (bacteriorhodopsin (BR); 0.1-5% BR purple membrane in egg phosphatidyl choline, white light): decreased | Activity of BR within the microsphere (proton pumping) (bacteriorhodopsin (BR)): active | Activity of BR within the microsphere (proton pumping) (bacteriorhodopsin (BR); listed as bacteriorhodopsin): photo-induced proton pumping
